The subject of one assay is C. difficile. Description: ASTM E2197-02 disk carrier test against C. difficile spores. Type of assay: cell-based. The settings on record: C. difficile spores with soil load on stainless steel disks, 10 minutes contact. As to the method:
Pyruvic peracid (PPA) and Peroxy α-ketobutyric acid (POKBA) were tested against C. difficile using the ASTM E2197-02 testing method and the results are shown on FIG. 3. […] The method of testing these molecules against C. difficile was designed to evaluate the ability of liquid chemical germicides to inactivate vegetative bacteria, viruses, fungi, mycobacteria and bacterial spores in the presence of a soil load on disk carriers that represent environmental surfaces and medical devices.
This test method is a standard test promulgated by ASTM Committee E35 on Pesticides and Subcommittee E35.15 on Antimicrobial Agents. The stringency in the test is provided by the use of a soil load, the microtopography of the carrier surface and the small ratio of disinfectant to surface area (1:5) typical for many disinfectant applications. Thus the formulation under test is presented with a reasonable challenge while allowing for efficient recovery of the test organisms from the inoculated carriers with or without their exposure to the test formulation.
The metal disks used in the basic test are also compatible with a wide variety of germicidal actives and most surfaces in consumer based product manufacturing and health care facilities. The design of the metal discs makes it possible to place onto each precisely measured volume of the test organism (28 μL) as well as the test formulation (125 μL). […]

Another assay concerns MRSA. Description: Spray test, log reduction of MRSA. Type of assay: cell-based. The settings on record: derived from 10% pyruvate and 3% H2O2; no growth in the broth, complete elimination assumed. From the text: A representative list of the organisms tested include, but are not limited to, Bacillus subtilis, Bacillus atrophaeus, Bacillus thuringiensis, Staphylococcus aureus, Salmonella cholerasuis, Pseudomonas aeruginosa, Aspergillus niger, and Trichophyton mentagrophytes. The following exemplifies one procedure derived from disinfectant test methods found in guidelines of the Association of Official Analytical Chemists (AOAC) to meet “log reduction criteria” established by the U.S. Environmental Protection Agency (EPA) and U.S. FDA for certain applications: (1) A tube of the sample-disinfectant is placed into a waterbath for temperature control and allowed to equilibrate; (2) Once the tube has reached temperature, it is inoculated to achieve a concentration of approximately 10^6 CFU/mL; (3) At selected time points (generally five points are used including zero) aliquots are removed and placed into a neutralizer blank; (4) Dilutions of the neutralizer are made and selected dilutions plated onto agar; (5) Colonies are enumerated and log reductions are calculated.
In order to obtain observable significant reductions (on the order of 106) of surface bacteria, a high number of viable CFU/in^2 must be available for treatment on the surface to be disinfected. […]
The effectiveness of treatments was evaluated by enumeration of the surviving bacteria on the slide. […]

Regarding `CCC(=O)C(=O)OO` [POKBA, Peroxy-alpha-Ketobutyric Acid], in the assay with C. difficile, the “activity against C. difficile (comparison, FIG. 3)” value is listed as “significantly more active compared to PPA”. For the compound `CC(=O)C(=O)OO` [peroxy pyruvic acid], the “log reduction of the MRSA control” value in the assay on MRSA is “approximately 6 logs”.
